Source: patent US20240239790A1, “7-Morpholino-1,6-Naphthyridin-5-yl Derivatives and Pharmaceutical Compositions Thereof Useful as DNA-PK Inhibitor” (adMare Therapeutics Society, priority 2021, published 2024)
pEC50, pIC50: −log10 of the molar value. Read-outs that look alike come from different tables or passages of the source.

Tests used:
DNA-PK = target: T1, DNA-PK (Homo sapiens, UniProt P78527); test: DNA-PK Assay for Biochemical Enzymatic Inhibition (ADP Glo Kinase assay); settings: DNA-PK enzyme
T1 construct: purchased Invitrogen PR9107A
How it was run: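 Human DNA-PK (25 ng) preincubated 15 min with compounds (ten three-fold dilutions) in HEPES pH 7.5, MgCl2, KCl, calf thymus DNA buffer, then substrate 434.4 μM and ATP 64.4 μM (final) for 60 min at room temperature. ADP-Glo luminescence; percent inhibition fitted by four-parameter regression for IC50.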

[1] = Microsomal Stability Assay, human liver microsomes; type: in vitro ADME; settings: for microsomal CLint at 0.1 uM: both sexes, pH 7.4
Method: (§1) Samples were then mixed and centrifuged. Supernatants were used for HPLC-MS/MS analysis. […] Peak areas corresponding to the test compound were recorded.

[2] = system: pDNA-PK induction in HCT116 tumour spheroids; test: Multicellular tumour spheroid + radiation, pDNA-PK (ser2056) inhibition, immunohistochemical endpoint, HCT116; type: cell-based; settings: Homo sapiens, HCT-116, 20 Gy, 2 hours following radiation, 20% O2
How it was run: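 HCT116 spheroids (~0.5 mm) in MEM/10% FBS, 20% O2, 37° C., pre-incubated 1 h with compound (10 or 5 μM down to 3.5 nM), irradiated 20 Gy, then 2 h further with compound. Cryosections immunostained for pDNA-PK ser2056; EC50 is concentration halving radiation-induced pDNA-PK.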

[3] = target: T2, DNA-PK phosphorylation at Serine 2056 (Homo sapiens, UniProt P78527); test: Cellular Assay for Inhibition of DNA-PK Phosphorylation at Serine 2056 in FaDu cells (sandwich ELISA, neocarzinostatin); type: cell-based; settings: pSer2056 DNA-PK
T2 construct: FaDu cells were purchased from ATCC; host or cells: FaDu
How it was run: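 FaDu cells pre-treated with compound (0.3% DMSO) for 1 h, then neocarzinostatin 1 μg/mL final added for 2 h to induce DSBs. Protein-normalised lysates read by sandwich ELISA for total and pSer2056 DNA-PK; % inhibition normalised between DMSO and NCS controls, IC50 from variable-slope log(inhibitor) fit.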

[4] = Microsomal Stability Assay, mouse liver microsomes; type: in vitro ADME; settings: for microsomal CLint at 0.1 uM: male, CD-1, pH 7.4
Method: as §1

FaDu tumour xenograft = test: Tumour Growth Delay, FaDu tumour xenograft-bearing animals, compound ± radiation (TGD-ER); type: in vivo; settings: PO
Method: FaDu tumour xenograft-bearing animals were monitored for tumour growth and once average tumour size reached approximately 100-250 mm3, animals were assigned to treatment cohorts using stratified randomization. […]
For BID dosing regimens, at 8 h following the first injection, animals were again administered with test compound at the same dose as their previous administration. Animals were weighed and had tumours measured using calipers three times weekly until the endpoint of maximum tumour volume, 1000 mm3, was reached and animals were euthanized. Tumour volumes were calculated according to the equation L×W^2/2 with the length (mm) being the longer axis of the tumour; in the case that no tumour was palpable, tumour volumes were recorded as 0 mm^3.
Data were calculated as tumour growth normalized to day 0 measurements, with time to tumour doubling determined. Average time to tumour doubling for each group was used to determine a Tumour Growth Delay Enhancement Ratio (TGD-ER): the time to doubling for treatment groups were divided by the time to doubling for irradiation-alone groups to determine group-specific TGD-ER values, and these were assigned scores based on defined response ranges: values>2.5=A, 1-2.5=B, <1=C.

FaDu cell line = test: Prodrug Activation in Hypoxic Stirred Tumour Cell Suspensions; settings: 10 μM, 4 hours
[5] = system: pH2AX induction in HCT116 ATM-/- multicellular tumour spheroids; test: Prodrug Radiation Sensitization in Multicellular Tumour Spheroids, inhibition of pH2AX induction following radiation; type: cell-based; settings: Homo sapiens, HCT-116, 20 Gy
How it was run: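 HCT116 and FaDu spheroids (~0.5 mm diameter), ATM-deficient lines included, in MEM/10% FBS/10 mM glucose at 37 °C under 20% vs 5% oxygen with stirring. Prodrugs 10 μM down to 3.5 nM, 20 Gy irradiation. pDNA-PK (ser 2056) or pH2AX (ser 139) scored in formalin-fixed cryosections 1 or 2 h post-radiation.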

[6] = human liver microsomes 0.1 mg/mL, 0.1 uM compound
[7] = Example 9 Study 2, read-out: Spheroid Cell line: HCT116 Immunohistochemical endpoint pDNA-PK inhibition EC50
[8] = Spheroid, Cell Line: HCT115 (so in the source), Example 7, read-out: EC50, Immunohistochemical endpoint, pDNA-PK inhibition
[9] = neocarzinostatin 1 μg/mL, Table 1
[10] = mouse liver microsomes 0.1 mg/mL, 0.1 uM compound
[11] = human liver microsomes, Example 11
[12] = 5% O2, inner layers, read-out: Prodrug 5% O2 Inner layers EC50
[13] = 5% O2, outer layers, read-out: Prodrug 5% O2 Outer layers EC50
[14] = 20% O2, outer layers, read-out: Prodrug 20% O2 Outer layers EC50
[15] = mouse liver microsomes, Example 11

Row | Compound | pIC50 (DNA-PK; Table 1) | microsomal CLint at 0.1 uM [1, 6] [µL/min/mg] | Microsomal Stability Human % rem. 60 min ([1]; human liver microsomes) | pEC50 [2, 7] | pEC50 [2, 8] | pIC50 [3, 9] | microsomal CLint at 0.1 uM [4, 10] [µL/min/mg] | Microsomal Stability Mouse % rem. 60 min ([4]; mouse liver microsomes) | pIC50 (DNA-PK; Table 2) | microsomal CLint at 0.1 uM [1, 11] [µL/min/mg] | Microsomal Stability Human % rem. 60 min [1, 11] | pIC50 ([3]; Table 2) | microsomal CLint at 0.1 uM [4, 15] [µL/min/mg] | Microsomal Stability Mouse % rem. 60 min [4, 15] | also measured
1 | CS(=O)(=O)NCCOc1cnc(N[C@H]2CC[C@@H](Oc3nc(N4CCOCC4)cc4ncccc34)CC2)nc1 [Compound 67] | > 9.30 | > 116 | E (% remaining = 0-25%) | 6.30 to 8.00 | 6.00 to 6.30 | > 7.00 | < 116 | G (% remaining = 50-75%) |  |  |  |  |  |  | 
2 | CC(c1cnc([N+](=O)[O-])n1C)N(c1cnc2cc(N3CCOCC3)nc(O[C@H]3CC[C@@H](Nc4ncc(OCCN5CCN(C)CC5)cn4)CC3)c2c1)S(C)(=O)=O (stereo partly shown) [LFA033, N-[1-(3-Methyl-2-nitro-imidazol-4-yl)ethyl]-N-[5-[4-[[5-[2-(4-methylpiperazin-1-yl)ethoxy]pyrimidin-2-yl]amino]cyclohexoxy]-7-morpholino-1,6-naphthyridin-3-yl]methanesulfonamide] |  |  |  |  |  |  |  |  |  |  |  |  |  |  | TGD-ER Range Score (FaDu tumour xenograft; 50 mpk BID + 10 Gy): C (<1=C)
3 | CN(C)C(=O)COc1cnc(C(=O)N[C@H]2CC[C@@H](Oc3nc(N4CCOCC4)cc4ncccc34)CC2)nc1 [Compound 125] | 9.00 to 9.30 | < 116 | H (% remaining = 75-100%) | 5.00 to 6.00 | 5.00 to 6.00 | 6.00 to 7.00 | < 116 | H (% remaining = 75-100%) |  |  |  |  |  |  | 
4 | c1cnc2cc(N3CCOCC3)nc(O[C@H]3CC[C@@H](Nc4ncc(OCCN5CCNCC5)cn4)CC3)c2c1 [Compound 70, N-((1s,4s)-4-((7-Morpholino-1,6-naphthyridin-5-yl)oxy)cyclohexyl)-5-(2-(piperazin-1-yl)ethoxy)pyrimidin-2-amine] | > 9.30 | > 116 | F (% remaining = 25-50%) | 5.00 to 6.00 | 5.00 to 6.00 | > 7.00 | > 116 | F (% remaining = 25-50%) |  |  |  |  |  |  | 
5 | O=S(=O)(Nc1cnc2cc(N3CCOCC3)nc(O[C@H]3CC[C@@H](Nc4ncccn4)CC3)c2c1)C1CC1 [Compound 186, N-(7-morpholino-5-(((1s,4s)-4-(pyrimidin-2-ylamino)cyclohexyl)oxy)-1,6-naphthyridin-3-yl)cyclopropanesulfonamide] | 9.00 to 9.30 | > 116 | F (% remaining = 25-50%) | 5.00 to 6.00 | 5.00 to 6.00 | > 7.00 | < 116 | G (% remaining = 50-75%) |  |  |  |  |  |  | 
6 | CN(C)C(=O)COc1ccnc(N[C@H]2CC[C@@H](Oc3nc(N4CCOCC4)cc4ncccc34)CC2)n1 [Compound 56, N,N-dimethyl-2-((2-(((1s,4s)-4-((7-morpholino-1,6-naphthyridin-5-yl)oxy)cyclohexyl)amino)pyrimidin-4-yl)oxy)acetamide] | > 9.30 | > 116 | E (% remaining = 0-25%) | 6.00 to 6.30 | 6.00 to 6.30 | 6.00 to 7.00 | > 116 | E (% remaining = 0-25%) |  |  |  |  |  |  | 
7 | CN1CCN(CCOc2cnc(N[C@H]3CC[C@@H](Oc4nc(N5CCOCC5)cc5ncc(NS(C)(=O)=O)cc45)CC3)nc2)CC1 [LFA031, N-[5-[4-[[5-[2-(4-Methylpiperazin-1-yl)ethoxy]pyrimidin-2-yl]amino]cyclohexoxy]-7-morpholino-1,6-naphthyridin-3-yl]methanesulfonamide] |  |  |  |  |  |  |  |  |  |  |  |  |  |  | TGD-ER Range Score (FaDu tumour xenograft; 30 mpk BID + 10 Gy): B (1-2.5=B)

Now from value to molecule, other results behind:

Row | pIC50 (DNA-PK; Table 1) | microsomal CLint at 0.1 uM [1, 6] [µL/min/mg] | Microsomal Stability Human % rem. 60 min ([1]; human liver microsomes) | pEC50 [2, 7] | pEC50 [2, 8] | pIC50 [3, 9] | microsomal CLint at 0.1 uM [4, 10] [µL/min/mg] | Microsomal Stability Mouse % rem. 60 min ([4]; mouse liver microsomes) | pIC50 (DNA-PK; Table 2) | microsomal CLint at 0.1 uM [1, 11] [µL/min/mg] | Microsomal Stability Human % rem. 60 min [1, 11] | pIC50 ([3]; Table 2) | microsomal CLint at 0.1 uM [4, 15] [µL/min/mg] | Microsomal Stability Mouse % rem. 60 min [4, 15] | Compound | also measured
8 |  |  |  |  |  |  |  |  | 6.82 to 8.00 | < 116 | E (% remaining = 0-25%) | 4.52 to 5.00 | > 116 | E (% remaining = 0-25%) | CN(C)C(=O)COc1cnc(N[C@H]2CC[C@@H](Oc3nc(N4CCOCC4)cc4ncc(OCc5cnc([N+](=O)[O-])n5C)cc34)CC2)nc1 [LFA114, N,N-Dimethyl-2-[2-[[4-[[3-[(3-methyl-2-nitro-imidazol-4-yl)methoxy]-7-morpholino-1,6-naphthyridin-5-yl]oxy]cyclohexyl]amino]pyrimidin-5-yl]oxy-acetamide] | Fraction of prodrug converted to active form, Hypoxic 0.2% O2 (FaDu cell line): A (A is 0.15 to 1); Fraction of prodrug converted to active form, Oxic 5% O2 (FaDu cell line): B (B is 0.05 to 0.15); pEC50 [5, 12]: 6.30 to 8.00; pEC50 [5, 13]: 6.00 to 6.30; pEC50 [5, 14]: 5.00 to 6.00
9 |  |  |  |  |  |  |  |  | 9.00 to 9.30 | < 116 | G (% remaining = 50-75%) | 6.00 to 7.00 | < 116 | F (% remaining = 25-50%) | CN(C)C(=O)COc1cnc(N[C@H]2CC[C@@H](Oc3nc(N4CCOCC4)cc4ncc(N)cc34)CC2)nc1 [LFA111, 2-[2-[[4-[(3-Amino-7-morpholino-1,6-naphthyridin-5-yl)oxy]cyclohexyl]amino]pyrimidin-5-yl]oxy-N,N-dimethyl-acetamide] | 
10 |  |  |  |  |  |  |  |  | 6.82 to 8.00 | < 116 | F (% remaining = 25-50%) | 4.52 to 5.00 | < 116 | G (% remaining = 50-75%) | Cn1c(CN(c2cnc3cc(N4CCOCC4)nc(OC4CCC(NC(=O)c5ncccn5)CC4)c3c2)S(C)(=O)=O)cnc1[N+](=O)[O-] (stereo not shown) [LFA016, N-[4-[[3-[(3-Methyl-2-nitro-imidazol-4-yl)methyl-methylsulfonyl-amino]-7-morpholino-1,6-naphthyridin-5-yl]oxy]cyclohexyl]pyrimidine-2-carboxamide] | Fraction of prodrug converted to active form, Hypoxic 0.2% O2 (FaDu cell line): C (C is 0.02 to 0.05); Fraction of prodrug converted to active form, Oxic 5% O2 (FaDu cell line): D (D is 0 to 0.02); pEC50 [5, 12]: 5.00 to 6.00; pEC50 [5, 13]: 5.00 to 6.00; pEC50 [5, 14]: 4.00 to 5.00
11 |  |  |  |  |  |  |  |  | > 9.30 | < 116 | H (% remaining = 75-100%) | > 7.00 | < 116 | F (% remaining = 25-50%) | CN(C)C(=O)COc1cnc(N[C@H]2CC[C@@H](Oc3nc(N4CCOCC4)cc4ncc(O)cc34)CC2)nc1 [LFA113, 2-[2-[[4-[(3-Hydroxy-7-morpholino-1,6-naphthyridin-5-yl)oxy]cyclohexyl]amino]pyrimidin-5-yl]oxy-N,N-dimethyl-acetamide] | 
